This passage reports MIC results from patent US10314823B2, “Substituted 1,2-dihydro-3H-pyrrolo[1,2-c]imidazol-3-one antibacterial compounds” (IDORSIA PHARMACEUTICALS LTD, priority 2015, dated 2019).

Converted amounts (≈) assume the structure as drawn.

Holding throughout (test): Bacterial growth minimal inhibitory concentration (CLSI broth microdilution)
What all share (assay type): cell-based
In general terms: Dilution methods test growth across graded concentrations, often in twofold steps.

In one experiment the test system is P. aeruginosa ATCC27853. To be noted: Pseudomonas aeruginosa, ATCC27853; quinolone-sensitive strain; cation-adjusted Mueller-Hinton Broth. In short, it runs like this: (§1)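 Growth inhibition is assessed by broth microdilution in cation-adjusted Mueller-Hinton broth, with MIC values given in mg/L.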
The next experiment deals with K. pneumoniae A-651. The following applies: Klebsiella pneumoniae, A651; multiply resistant strain (in particular quinolone-resistant); cation-adjusted Mueller-Hinton Broth. In short, it runs like this: as §1
For a further experiment, the system named is E. coli ATCC25922. The following applies: Escherichia coli, ATCC25922; quinolone-sensitive strain; cation-adjusted Mueller-Hinton Broth. In short, it runs like this: as §1

For orientation: MIC means the lowest concentration that inhibits growth of the organism. High values mean a less susceptible organism, low ones a more susceptible organism.

On to `CN1CCC(F)(C#CC#Cc2cc3n(c2)C(=O)N(CC[C@](C)(C(=O)NO)S(C)(=O)=O)C3)CC1` [Example 46, (2R)-4-(6-((4-fluoro-1-methylpiperidin-4-yl)buta-1,3-diyn-1-yl)-3-oxo-1H-pyrrolo[1,2-c]imidazol-2(3H)-yl)-N-hydroxy-2-methyl-2-(methylsulfonyl)butanamide], for which the MIC against P. aeruginosa ATCC27853 worked out at 1 µg/mL (≈ 2.09 µM); with K. pneumoniae A-651, 1 µg/mL (≈ 2.09 µM); against E. coli ATCC25922, 0.5 µg/mL (≈ 1.04 µM).

With `C[C@@](CCN1Cc2cc(C#CC#CC3(F)CCN(C4COC4)CC3)cn2C1=O)(C(=O)NO)S(C)(=O)=O` [Example 47, (2R)-4-(6-((4-fluoro-1-(oxetan-3-yl)piperidin-4-yl)buta-1,3-diyn-1-yl)-3-oxo-1H-pyrrolo[1,2-c]imidazol-2(3H)-yl)-N-hydroxy-2-methyl-2-(methylsulfonyl)butanamide], the MIC is 2 µg/mL (≈ 3.84 µM) against P. aeruginosa ATCC27853, 2 µg/mL (≈ 3.84 µM) against K. pneumoniae A-651 and 0.5 µg/mL (≈ 0.96 µM) against E. coli ATCC25922.

On to `CN1CCC(O)(C#CC#Cc2cc3n(c2)C(=O)N(CC[C@](C)(C(=O)NO)S(C)(=O)=O)C3)CC1` [Example 48, (2R)—N-hydroxy-4-(6-((4-hydroxy-1-methylpiperidin-4-yl)buta-1,3-diyn-1-yl)-3-oxo-1H-pyrrolo[1,2-c]imidazol-2(3H)-yl)-2-methyl-2-(methylsulfonyl)butanamide], for which the MIC in the experiment on P. aeruginosa ATCC27853 is 4 µg/mL (≈ 8.39 µM); against K. pneumoniae A-651, more than 8 µg/mL; against E. coli ATCC25922, more than 8 µg/mL.

For the molecule `C[C@@](CCN1Cc2cc(C#Cc3ccc(CN4CC(F)C4)cc3)cn2C1=O)(C(=O)NO)S(C)(=O)=O` [Example 49, (2R)-4-(6-((4-((3-fluoroazetidin-1-yl)methyl)phenyl)ethynyl)-3-oxo-1H-pyrrolo[1,2-c]imidazol-2(3H)-yl)-N-hydroxy-2-methyl-2-(methylsulfonyl)butanamide], the MIC against P. aeruginosa ATCC27853 was 1 µg/mL (≈ 1.99 µM); against K. pneumoniae A-651 it was 0.125 µg/mL (≈ 0.249 µM); in the experiment with E. coli ATCC25922, less than 0.063 µg/mL.

Take `CN1CCN(C(=O)OCC#CC#Cc2cc3n(c2)C(=O)N(CC[C@](C)(C(=O)NO)S(C)(=O)=O)C3)CC1` [Example 50, (3R)-5-(2-(4-(hydroxyamino)-3-methyl-3-(methylsulfonyl)-4-oxobutyl)-3-oxo-2,3-dihydro-1H-pyrrolo[1,2-c]imidazol-6-yl)penta-2,4-diyn-1-yl 4-methylpiperazine-1-carboxylate]: the MIC in the experiment on P. aeruginosa ATCC27853 worked out at 2 µg/mL (≈ 3.85 µM); in the experiment on K. pneumoniae A-651, 1 µg/mL (≈ 1.92 µM); in the experiment with E. coli ATCC25922, 1 µg/mL (≈ 1.92 µM).

On to `C[C@@](CCN1Cc2cc(C#CC#CC3CN(C[C@@H](O)CO)C3)cn2C1=O)(C(=O)NO)S(C)(=O)=O` [Example 51, (2R)-4-(6-((1-((R)-2,3-dihydroxypropyl)azetidin-3-yl)buta-1,3-diyn-1-yl)-3-oxo-1H-pyrrolo[1,2-c]imidazol-2(3H)-yl)-N-hydroxy-2-methyl-2-(methylsulfonyl)butanamide], for which the results for the MIC against P. aeruginosa ATCC27853, in the experiment on K. pneumoniae A-651 and in the experiment with E. coli ATCC25922 were 1 µg/mL (≈ 2.03 µM), 4 µg/mL (≈ 8.12 µM) and 1 µg/mL (≈ 2.03 µM), respectively.

On to `[2H]C([2H])N1CC(C#CC#Cc2cc3n(c2)C(=O)N(CC[C@](C)(C(=O)NO)S(C)(=O)=O)C3)C1` [Example 52, (2R)—N-hydroxy-2-methyl-4-(6-((1-(methyl-d2)azetidin-3-yl)buta-1,3-diyn-1-yl)-3-oxo-1H-pyrrolo[1,2-c]imidazol-2(3H)-yl)-2-(methylsulfonyl)butanamide], for which the MIC against P. aeruginosa ATCC27853, in the experiment on K. pneumoniae A-651 and in the experiment on E. coli ATCC25922 was 0.5 µg/mL (≈ 1.15 µM) each time.

On to `C[C@@](CCN1Cc2cc(C#CC#C[C@@H]3C[C@H](F)CN3)cn2C1=O)(C(=O)NO)S(C)(=O)=O.Cl` [Example 53, (2R)-4-(6-(((2S,4S)-4-fluoropyrrolidin-2-yl)buta-1,3-diyn-1-yl)-3-oxo-1H-pyrrolo[1,2-c]imidazol-2(3H)-yl)-N-hydroxy-2-methyl-2-(methylsulfonyl)butanamide hydrochloride], for which the MIC against P. aeruginosa ATCC27853, against K. pneumoniae A-651 and with E. coli ATCC25922 was 4 µg/mL in each case.

With `CCN1CC(C#CC#Cc2cc3n(c2)C(=O)N(CC[C@](C)(C(=O)NO)S(C)(=O)=O)C3)C1` [Example 54, (2R)-4-(6-((1-ethylazetidin-3-yl)buta-1,3-diyn-1-yl)-3-oxo-1H-pyrrolo[1,2-c]imidazol-2(3H)-yl)-N-hydroxy-2-methyl-2-(methylsulfonyl)butanamide], the MIC against P. aeruginosa ATCC27853 came out at 0.5 µg/mL (≈ 1.12 µM); against K. pneumoniae A-651 it was 0.5 µg/mL (≈ 1.12 µM); against E. coli ATCC25922, 0.25 µg/mL (≈ 0.56 µM).

In the case of `C[C@@](CCN1Cc2cc(C#CC#CC3CN(CC4CC4)C3)cn2C1=O)(C(=O)NO)S(C)(=O)=O` [Example 55, (2R)-4-(6-((1-(cyclopropylmethyl)azetidin-3-yl)buta-1,3-diyn-1-yl)-3-oxo-1H-pyrrolo[1,2-c]imidazol-2(3H)-yl)-N-hydroxy-2-methyl-2-(methylsulfonyl)butanamide], the MIC was 1 µg/mL (≈ 2.12 µM) against P. aeruginosa ATCC27853, 0.25 µg/mL (≈ 0.529 µM) against K. pneumoniae A-651 and 0.125 µg/mL (≈ 0.265 µM) against E. coli ATCC25922.

With `C[C@@](CCN1Cc2cc(C#CC#C[C@H]3C[C@@H]3[C@@H](O)CO)cn2C1=O)(C(=O)NO)S(C)(=O)=O` [Example 56, (2R)-4-(6-(((1S,2S)-2-((R)-1,2-dihydroxyethyl)cyclopropyl)buta-1,3-diyn-1-yl)-3-oxo-1H-pyrrolo[1,2-c]imidazol-2(3H)-yl)-N-hydroxy-2-methyl-2-(methylsulfonyl)butanamide], the MIC in the experiment with P. aeruginosa ATCC27853 was 0.5 µg/mL (≈ 1.08 µM); in the experiment on K. pneumoniae A-651 it was 1 µg/mL (≈ 2.16 µM); against E. coli ATCC25922 it was 0.25 µg/mL (≈ 0.539 µM).

Turning to `C[C@@](CCN1Cc2cc(C#CC#CC3CN(C4CC4)C3)cn2C1=O)(C(=O)NO)S(C)(=O)=O` [Example 57, (2R)-4-(6-((1-cyclopropylazetidin-3-yl)buta-1,3-diyn-1-yl)-3-oxo-1H-pyrrolo[1,2-c]imidazol-2(3H)-yl)-N-hydroxy-2-methyl-2-(methylsulfonyl)butanamide], the minimal inhibitory concentration (MIC) against P. aeruginosa ATCC27853 came out at 0.063 µg/mL (≈ 0.137 µM); against K. pneumoniae A-651 it was 0.5 µg/mL (≈ 1.09 µM); against E. coli ATCC25922, 0.125 µg/mL (≈ 0.273 µM).

Take `C[C@@](CCN1Cc2cc(C#CC#CC3CN(CC(F)(F)F)C3)cn2C1=O)(C(=O)NO)S(C)(=O)=O` [Example 58, (2R)—N-hydroxy-2-methyl-2-(methylsulfonyl)-4-(3-oxo-6-((1-(2,2,2-trifluoroethyl)azetidin-3-yl)buta-1,3-diyn-1-yl)-1H-pyrrolo[1,2-c]imidazol-2(3H)-yl)butanamide]: the MIC with P. aeruginosa ATCC27853 worked out at 0.25 µg/mL (≈ 0.5 µM); against K. pneumoniae A-651, 4 µg/mL (≈ 7.99 µM); against E. coli ATCC25922, 0.5 µg/mL (≈ 0.999 µM).

Take `[2H]CN1CC(C#CC#Cc2cc3n(c2)C(=O)N(CC[C@](C)(C(=O)NO)S(C)(=O)=O)C3)C1` [Example 60, (2R)—N-hydroxy-2-methyl-4-(6-((1-(methyl-d)azetidin-3-yl)buta-1,3-diyn-1-yl)-3-oxo-1H-pyrrolo[1,2-c]imidazol-2(3H)-yl)-2-(methylsulfonyl)butanamide]: the MIC against P. aeruginosa ATCC27853, against K. pneumoniae A-651 and against E. coli ATCC25922 was 0.5 µg/mL (≈ 1.15 µM) each time.

For `C[C@@](CCN1Cc2cc(C#CC#CC3CN(CCF)C3)cn2C1=O)(C(=O)NO)S(C)(=O)=O` [Example 61, (2R)-4-(6-((1-(2-fluoroethyl)azetidin-3-yl)buta-1,3-diyn-1-yl)-3-oxo-1H-pyrrolo[1,2-c]imidazol-2(3H)-yl)-N-hydroxy-2-methyl-2-(methylsulfonyl)butanamide], the MIC was 0.5 µg/mL (≈ 1.08 µM) with P. aeruginosa ATCC27853, 0.5 µg/mL (≈ 1.08 µM) against K. pneumoniae A-651 and 0.063 µg/mL (≈ 0.136 µM) in the experiment on E. coli ATCC25922.

As to `C[C@@](CCN1Cc2cc(C#CC#CC3CN(C4CCC4)C3)cn2C1=O)(C(=O)NO)S(C)(=O)=O` [Example 62, (2R)-4-(6-((1-cyclobutylazetidin-3-yl)buta-1,3-diyn-1-yl)-3-oxo-1H-pyrrolo[1,2-c]imidazol-2(3H)-yl)-N-hydroxy-2-methyl-2-(methylsulfonyl)butanamide], the MIC in the experiment on P. aeruginosa ATCC27853 came to 1 µg/mL (≈ 2.12 µM); in the experiment with K. pneumoniae A-651, 0.125 µg/mL (≈ 0.265 µM); in the experiment on E. coli ATCC25922 it was 0.125 µg/mL (≈ 0.265 µM).

Turning to `C[C@@](CCN1Cc2cc(C#CC#CC3CN(C4CS(=O)(=O)C4)C3)cn2C1=O)(C(=O)NO)S(C)(=O)=O` [Example 63, (2R)-4-(6-((1-(1,1-dioxidothietan-3-yl)azetidin-3-yl)buta-1,3-diyn-1-yl)-3-oxo-1H-pyrrolo[1,2-c]imidazol-2(3H)-yl)-N-hydroxy-2-methyl-2-(methylsulfonyl)butanamide], the results for the minimum inhibitory concentration (MIC) in the experiment with P. aeruginosa ATCC27853, in the experiment on K. pneumoniae A-651 and against E. coli ATCC25922 were 4 µg/mL (≈ 7.65 µM), 2 µg/mL (≈ 3.83 µM) and 1 µg/mL (≈ 1.91 µM), respectively.

For the molecule `C[C@@](CCN1Cc2cc(C#CC#CC3CN(CCCO)C3)cn2C1=O)(C(=O)NO)S(C)(=O)=O` [Example 64, (2R)—N-hydroxy-4-(6-((1-(3-hydroxypropyl)azetidin-3-yl)buta-1,3-diyn-1-yl)-3-oxo-1H-pyrrolo[1,2-c]imidazol-2(3H)-yl)-2-methyl-2-(methylsulfonyl)butanamide], the MIC was 0.5 µg/mL (≈ 1.05 µM) in the experiment with P. aeruginosa ATCC27853, 1 µg/mL (≈ 2.1 µM) in the experiment with K. pneumoniae A-651 and 0.25 µg/mL (≈ 0.525 µM) in the experiment on E. coli ATCC25922.

In the case of `CN1CC(C)(C#CC#Cc2cc3n(c2)C(=O)N(CC[C@](C)(C(=O)NO)S(C)(=O)=O)C3)C1` [Example 65, (2R)-4-(6-((1,3-dimethylazetidin-3-yl)buta-1,3-diyn-1-yl)-3-oxo-1H-pyrrolo[1,2-c]imidazol-2(3H)-yl)-N-hydroxy-2-methyl-2-(methylsulfonyl)butanamide], the MIC against P. aeruginosa ATCC27853, with K. pneumoniae A-651 and in the experiment with E. coli ATCC25922 was 1 µg/mL (≈ 2.24 µM) throughout.

`C[C@@](CCN1Cc2cc(C#CC#CC3(F)CN(CCO)C3)cn2C1=O)(C(=O)NO)S(C)(=O)=O` [Example 66, (2R)-4-(6-((3-fluoro-1-(2-hydroxyethyl)azetidin-3-yl)buta-1,3-diyn-1-yl)-3-oxo-1H-pyrrolo[1,2-c]imidazol-2(3H)-yl)-N-hydroxy-2-methyl-2-(methylsulfonyl)butanamide]: the MIC was found to be 2 µg/mL (≈ 4.16 µM) in the experiment on P. aeruginosa ATCC27853, 1 µg/mL (≈ 2.08 µM) in the experiment on K. pneumoniae A-651 and 0.5 µg/mL (≈ 1.04 µM) with E. coli ATCC25922.
